In ChEMBL document CHEMBL1149029, “New cycloartanol sulfates from the alga Tydemania expeditionis: inhibitors of the protein tyrosine kinase pp60v-src” (J Nat Prod, 1994):

Assay: Inhibition of Rous sarcoma virus pp60v-src

Compound	IC50
CC(C)=CC(=O)C[C@@H](C)[C@H]1CC[C@@]2(C)[C@@H]3CC[C@H]4[C@](C)(COS(=O)(=O)O)[C@@H](OS(=O)(=O)O)CC[C@@]45C[C@@]35CC[C@]12C	39 µM
CC(C)CC(O)C[C@@H](C)[C@H]1CC[C@@]2(C)[C@@H]3CC[C@H]4[C@](C)(COS(=O)(=O)O)[C@@H](OS(=O)(=O)O)CC[C@@]45C[C@@]35CC[C@]12C (stereo partly drawn)	100 µM
CC(C)CC(=O)C[C@@H](C)[C@H]1CC[C@@]2(C)[C@@H]3CC[C@H]4[C@](C)(COS(=O)(=O)O)[C@@H](OS(=O)(=O)O)CC[C@@]45C[C@@]35CC[C@]12C	32 µM
